Test results as given in BigSolDB 2.1.

CO/N=C(\C(=O)N[C@@H]1C(=O)N2C(C(=O)O)=C(CSc3nnnn3C)CS[C@H]12)c1csc(N)n1.CO/N=C(\C(=O)N[C@@H]1C(=O)N2C(C(=O)O)=C(CSc3nnnn3C)CS[C@H]12)c1csc(N)n1.Cl
solubility (mole fraction)
Conditions | 283.15 K | 288.15 K | 293.15 K | 298.15 K | 303.15 K | 308.15 K | 313.15 K
in ethanol | 2.61e-05 | 2.83e-05 | 3.03e-05 | 3.17e-05 | 3.8e-05 | 4.01e-05 | 4.68e-05
in methanol | 0.000186 | 0.000196 | 0.000213 | 0.000235 | 0.000253 | 0.000275 | 0.000303
in water | 3.26e-05 | 3.59e-05 | 4.23e-05 | 4.76e-05 | 5.29e-05 | 5.88e-05 | 6.65e-05
